From publication doi:10.1101/2025.01.28.635286v2 (bioRxiv, 2025)

Experiments:
Format in all cases: cell-based, human
[1] = system: phospho-cofilin (serine 3); test: Western blot of phospho-cofilin in hCMEC/D3 monolayers; settings: TNF-alpha 20 ng/mL, 24 h, western blot normalized to GAPDH, p<0.05
phospho-IRS (serine 307) = test: Western blot of phospho-IRS in hCMEC/D3 monolayers; settings: TNF-alpha 20 ng/mL, 24 h, immunoblot normalized to GAPDH, p<0.01
hCMEC/D3 monolayers = test: Confocal microscopy of FITC-Aβ42 uptake in hCMEC/D3 monolayers; settings: TNF-alpha 20 ng/mL
phospho-dynamin = test: Western blot of phospho-dynamin in hCMEC/D3 monolayers; settings: TNF-alpha 20 ng/mL, 24 h, western blot normalized to GAPDH, p<0.05

For tumor necrosis factor-alpha [TNF-alpha], the “decrease of phospho-cofilin expression compared to control cells” value [1] was “approximately 2 fold”, the “increase in phospho-IRS expression (serine 307)” value (phospho-IRS (serine 307)) was 3 fold and the “FITC-Aβ42 fluorescence by confocal microscopy in comparison to control cells” value (hCMEC/D3 monolayers) was “increased FITC-Aβ42 fluorescence”. The “increase in phospho-dynamin levels compared to control cells” value (phospho-dynamin) was ~3 fold.
